Data set [1] concerns human pancreas cancer cell line MDAPanc-28. Description: MTT assay of cell survival rate / living cell ratio. The class given is cell-based. As to conditions: MDAPanc-28, single agent, MTT. As to the method:
The present inventors examined the concomitant effect of FUT and TNF-α on apoptosis in cancer cells. After treatment with TNF-α for 24 hours, the human pancreas cancer cell line MDAPanc-28 was further cultured for 24 hours with various concentrations of FUT being added. Cells prepared were then subjected to an MTT assay according to the method generally known to calculate the cell survival rates. Also, DNA was extracted to perform a DNA fragmentation assay.
More specifically, with regard to the MTT assay, each well was seeded with 2000 cells per 100 μl of culture medium in a 96-well microtiterplate, followed by the above mentioned treatment. After plate centrifugation, each well received 5 mg/ml of MTT (Sigma) PBS solution instead of culture medium and was incubated for 4 hours at 37° C. After removing the supernatant, 100 μl of DMSO were added to dissolve the cells. The absorbance of the samples was measured at 570 nm by using a microplate reader. 8 wells were subjected to the same condition in this experiment. Two independent experiments were performed, and the average was calculated.
However, the agents are of different types with different mechanisms of action. Therefore, the present inventors examined the effect of each agent on the living cell ratio in the human pancreas cancer cell line MDAPanc-28 singularly. After being treated with each agent for 24 hours and 48 hours, the human pancreas cancer cell line MDAPanc-28 was subjected to a MTT assay. The MTT assay was performed by the method described in Example 9.

A further data set deals with NF-κB. Description: Gel shift assay of gemcitabine-induced NF-κB activation. The class given is cell-based, human. To be noted: MDAPanc-28, pretreatment 3 hours then gemcitabine 3 hours. As to the method: At the same time, the present inventors also made a comparison with the other NF-κB inhibitors PS1145 and PS341. […] Subsequently, a gel shift assay was performed to examine the effect on NF-κB activation.

A further data set relates to Murine fiber cells. Put plainly: Effect on survival rate of normal cells. It counts as cell-based. As to conditions: concentrations under which apoptosis was induced in cells. From the text: Therefore, the present inventors next examined the effect of FUT treatment on normal cells. Murine fiber cells were used as normal cells.
For data set [2], the system named is human pancreas cancer cell line MDAPanc-28. Put plainly: Apoptosis ratio by flow cytometry (propidium iodide, FACScan). The class given is cell-based. As to conditions: for apoptosis induction in combination with gemcitabine: MDAPanc-28, pretreatment with the agent 3 hours then gemcitabine 48 hours, compared with gemcitabine alone. How it is done: The present inventors next examined the effect of these agents on apoptosis induction in the human pancreas cancer cell line MDAPanc-28. […] Flow cytometry was used to confirm the occurrence of apoptosis. Cells were collected after treatments with the agents and fixed in 70% ethanol at −20° C. for 24 hours. After rinsing with PBS, cells were suspended in PBS containing 50 μg/ml of propium iodide, 0.1% Triton X-100, 0.1% sodium citrate and 1 μg/ml of DNase free RNase. The samples were incubated at room temperature for 30 minutes and the amount of DNA was measured by using FACScan.
Background: A flow cytometer gives signals particle by particle.

For data set [3], the system named is human pancreas cancer cell line Panc-1. Put plainly: Subcutaneous Panc-1 transplant in nude mice: tumor volume and weight. As to conditions: Panc-1 s.c., 6 weeks treatment, gemcitabine 100 mg/kg once a week i.p., FUT-175 30 mg/kg three times a week i.p. It counts as in vivo. As to the method:
(§1) Tumor volume, the body weight and extirpated tumor weight were measured and pictures were taken for each group of mice.

Data set [4] in a line: Body weight of Panc-1 transplanted nude mice after treatment. The class given is in vivo. To be noted: Panc-1 s.c., 6 weeks treatment, gemcitabine 100 mg/kg once a week i.p., FUT-175 30 mg/kg three times a week i.p. As to the method: as §1
Data set [5] relates to human pancreas cancer cell line MDAPanc-28. Put plainly: DNA fragmentation assay (apoptosis). To be noted: MDAPanc-28, TNF-α 5 ng/ml 24 hours, then with or without FUT 24 hours. It counts as cell-based. How it is done: After adding 1000 U/ml of protease K, the sample was further incubated for 5 hours at 50° C. After extracting DNA with phenol/chloroform/isoamyl alcohol, isopropanol and ammonium acetate were added to the collected water-soluble fractions in order to collect precipitates. The precipitates were then rinsed with 70% ethanol and dissolved in Tris-EDTA buffer. Electrophoresis was performed on a 2% agarose gel and DNA bands were confirmed by using ethidium bromide. The present inventors examined the concomitant effect of FUT and TNF-α on apoptosis in cancer cells. After treatment with TNF-α for 24 hours, the human pancreas cancer cell line […]-28 was further cultured for 24 hours with various concentrations of FUT being added. Cells prepared were then subjected to an MTT assay according to the method generally known to calculate the cell survival rates. Also, DNA was extracted to perform a DNA fragmentation assay. More specifically, with regard to the MTT assay, each well was seeded with 2000 cells per 100 μl of culture medium in a 96-well microtiterplate, followed by the above mentioned treatment. […] The absorbance of the samples was measured at 570 nm by using a microplate reader. […] Two independent experiments were performed, and the average was calculated. […]

On to `CC(C)C[C@H](NC(=O)[C@H](Cc1ccccc1)NC(=O)c1cnccn1)B(O)O` [PS341], for which, in data set [1], the “inhibitory effect on proliferation, 24-hour treatment” value was “no significant inhibitory effect on proliferation” and the “inhibitory effect on proliferation, 48-hour treatment” value is listed as “no significant inhibitory effect on proliferation”. The “effect on gemcitabine-induced activation of NF-κB” value with NF-κB was “showed a similar trend”. In the data set with Murine fiber cells, the “survival rate of normal cells” value is “significantly decreased the survival rate of normal cells”. Besides, in data set [2], the “apoptosis induction in combination with gemcitabine” value is “further enhanced the effect on apoptosis induction”.
In the case of `O=C(Nc1cc(Cl)cc2c1[nH]c1cnccc12)c1cccnc1` [PS1145], in data set [1], the “inhibitory effect on proliferation, 24-hour treatment” value is on record as “did not show any significant inhibitory effect” and the “inhibitory effect on proliferation, 48-hour treatment” value was “concentration-dependent inhibitory effect on proliferation”. In addition, in the data set with NF-κB, the “effect on gemcitabine-induced activation of NF-κB” value is “showed a similar trend”. The “survival rate of normal cells” value in the data set on Murine fiber cells was “significantly decreased the survival rate of normal cells”. For the same compound, the “apoptosis induction in combination with gemcitabine” value in data set [2] was “further enhanced the effect on apoptosis induction”.
Consider `Nc1ccn([C@@H]2O[C@H](CO)[C@@H](O)C2(F)F)c(=O)n1` [gemcitabine], for which, in data set [3], the “Extirpated tumor weight, level of the control” value is “approximately 50%” and the “Tumor volume, level of the control” value is listed as “approximately 50%”. The “body weight of mice after administration” value in data set [4] is “showed weight reduction”. The “apoptosis induction, single agent” value in data set [2] (MDAPanc-28, gemcitabine alone for 48 hours) is “induced apoptosis”.
In the case of TNF-α, the DNA fragmentation entry in data set [5] is given as “showed no DNA fragmentation”.

Values taken from US20100015249A1, “Antitumor agent containing 6'-amidino-2'-naphthyl 4-guanidinobenzoate or salt thereof” (priority 2005, published 2010).
